In the NIST ThermoML archive (doi:10.1016/j.fluid.2012.01.022):
± gives the expanded uncertainty stated by the source.

Legend:
[1] = Molar enthalpy of transition or fusion; conditions: Crystal; DSC
[2] = Crystal; DTA

NNC(=O)c1ccncc1 [isonicotinic acid hydrazide]
Molar enthalpy of transition or fusion [1]: 6.67 ± 0.191 kcal/mol
Normal melting temperature [2]: 172.69 ± 1.1 °C
